# Laboratory results from US20170304260A1, “ALTRENOGEST FORMULATION AND USES THEREOF FOR ESTRUS SYNCHRONISATION IN ANIMALS” (priority 2014, published 2017).
# Experiment: Storage stability of microcapsule emulsion / powder (Method 1, spray-drying)
# Format: physicochemical
# Settings: liquid and dry form of the microcapsule emulsion, ambient temperature
# Protocol: Method 1: Dry Microcapsule Obtained by Atomisation (Spray-Drying)
# The emulsion comprising the ingredients above was pre-homogenized with a Polytron™ homogenizer for 3 min at 9000 rpm, then homogenized with a two-stage Avestin™ homogenizer (3*5000 psi+1*500 psi).
# Spray drying was performed under the following conditions: spray dryer BUCHI® Mini Spray Drier B-191 with a 2 mm nozzle diameter, air pressure of 60 psi. The emulsion was fed into the main chamber through peristatic pump, feed flow rate was 400 ml/h, inlet air temperature was 160° C. and outlet temperature was 65° C. The dried microcapsules were collected in a cyclone.
# Particle size distribution of the final emulsion was less than 1 micron and the powder obtained by atomisation or freeze drying had good rehydration properties, low surface oil and low oxidation during the powder storage. Furthermore, the emulsion in liquid form containing 1.5% sodium caseinate and 15% sunflower oil was physically stable when pasteurized with no preservation agents added to it. Maltodextrin was used as a “wall material” to permit further drying of the emulsion. Additionally, the retention of Altrenogest was well preserved in both the liquid and dry form for a period of at least 5 months at ambient temperature.
compound,measurement,value
C=CC[C@]1(O)CC[C@H]2[C@@H]3CCC4=CC(=O)CCC4=C3C=C[C@@]21C [Altrenogest],period over which retention of Altrenogest was well preserved,at least 5 months
